This note sets out measurements from the supplement of paper PMC8024199.

Common to all, as to assay: drug sensitivity score (DSS) (DSS score); higher = more sensitive (stronger growth inhibition); extreme values may be limits of the assay
The subject of experiment [1] is Ba/F3 P210-BCR-ABL1 RUNX1-/- (mouse). Put shortly:
(§1)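 Each value is a drug sensitivity score derived from CellTiter-Glo luminescence scaled between vehicle and positive-control wells. Mouse Ba/F3 clones, CRISPR/Cas9-edited at a target exon or edited controls, were seeded at 10,000 cells per well in RPMI with 10% FBS and treated for 72 h at 37 °C and 5% CO2. Compounds from a 528-compound library were tested at five concentrations over a 10,000-fold range, and scores were averaged over two replicates.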

For experiment [2], the system named is Ba/F3 P210-BCR-ABL1 RUNX1wt/wt control (mouse). Put shortly:
as §1

Experiment [3] deals with Ba/F3 P210-BCR-ABL1 RUNX1-/mut (mouse). Put shortly:
as §1

± gives the standard deviation of the averaged measurements.

For the compound `N#CC1(c2ccc(NC(=O)c3cccnc3NCc3ccncc3)cc2)CCCC1` [Apatinib], the results for the drug sensitivity score in experiment [1], in experiment [2] and in experiment [3] were 0.4 ± 0.57, 0 and 0, respectively.

In the case of `CN(C)Cc1c(C(=O)NCCOc2ccc(C(=O)NO)cc2)oc2ccccc12` [Abexinostat], the figures for the drug sensitivity score in experiment [1], in experiment [2] and in experiment [3] were 24.4 ± 1.3, 18.7 ± 0.28 and 23.2 ± 2.4, respectively.

On to `O=C(/C=C/c1cccnc1)NCCCCC1CCN(C(=O)c2ccccc2)CC1` [Daporinad], for which the drug sensitivity score is 19.4 ± 0.35 in experiment [1], 15.9 ± 0.71 in experiment [2] and 20.5 ± 4.7 in experiment [3].

On to `Cc1nc(NC(=O)N2CCC[C@H]2C(N)=O)sc1-c1ccnc(C(C)(C)C(F)(F)F)c1` [Alpelisib], for which the drug sensitivity score in experiment [1] was determined as 2.5 ± 0.57; in experiment [2], 0.75 ± 1.1; in experiment [3] it was 3 ± 1.8.

In the case of `O=C(Nc1nc2cccc(-c3ccc(CN4CCS(=O)(=O)CC4)cc3)n2n1)C1CC1` [Filgotinib], the drug sensitivity score was determined as 1.5 ± 1.7 in experiment [1], 0 in experiment [2] and 1.8 ± 2.5 in experiment [3].

For the compound `O=C(Nc1ccc2[nH]nc(-c3ccncc3)c2c1)[C@@H]1CCN(CC(=O)N2CCN(c3ccc(-c4ncccn4)cc3)CC2)C1`, the drug sensitivity score in experiment [1] was 17.8 ± 1.6; in experiment [2] it was 5.1 ± 1.3; in experiment [3] it was 10.7 ± 1.4.

In the case of `Cc1nc(=O)c2cc(CN(C)c3ccc(C(=O)N[C@@H](CCC(=O)O)C(=O)O)s3)ccc2[nH]1` [Raltitrexed], the drug sensitivity score in experiment [1] stood at 23.4 ± 2.2; in experiment [2], 17.4 ± 0.57; in experiment [3], 20.3 ± 0.28.

With `CCOCc1nc2c(N)nc3ccccc3c2n1CC(C)(C)O` [Resiquimod], the drug sensitivity score stood at 3.6 in experiment [1], 0.15 ± 0.21 in experiment [2] and 3.6 ± 5.1 in experiment [3].

With `Cc1ccc(-n2nc(C(C)(C)C)cc2NC(=O)Nc2ccc(OCCN3CCOCC3)c3ccccc23)cc1` [Doramapimod], the drug sensitivity score was found to be 3.9 ± 0.57 in experiment [1], 0 in experiment [2] and 2.85 ± 1.5 in experiment [3].

For the compound `CCn1c(-c2nonc2N)nc2c(C#CC(C)(C)O)ncc(OC[C@H]3CCCNC3)c21`, the drug sensitivity score in experiment [1] is 0.75 ± 1.1; in experiment [2] it was 0; in experiment [3] it was 1.45 ± 2.

With `COc1cc2ncnc(Oc3cccc(NC(=O)Nc4cc(C(C)(C)C(F)(F)F)on4)c3)c2cc1OC`, the results for the drug sensitivity score in experiment [1], in experiment [2] and in experiment [3] were 15.8 ± 22, 21.6 ± 0.49 and 13.2 ± 19, respectively.

With `Cc1cc(-c2nc(-c3ccc(OC(F)(F)F)cc3)no2)nn1Cc1ccnc(N2CCN(C3CC3)CC2)c1` [BAY 87-2243], the drug sensitivity score was 4.6 ± 2.3 in experiment [1], 4.9 ± 0.57 in experiment [2] and 3.25 ± 1.5 in experiment [3].

Consider `CCCC(CCC)C(=O)O` [Valproic acid], for which the drug sensitivity score in experiment [1] worked out at 2.3 ± 0.28; in experiment [2], 0; in experiment [3] it was 0.75 ± 0.071.

As to `CCc1c(C(=O)C(N)=O)c2c(OCC(=O)O)cccc2n1Cc1ccccc1` [Varespladib], the drug sensitivity score was found to be 0 in experiment [1], 0 in experiment [2] and 0.65 ± 0.92 in experiment [3].

Turning to `O=C(c1ccc(OCCN2CCCCC2)cc1)c1c(-c2ccc(O)cc2)sc2cc(O)ccc12` [Raloxifene], the drug sensitivity score in experiment [1] is 5.4 ± 2.3; in experiment [2] it was 3.7 ± 1.8; in experiment [3], 5.05 ± 3.3.

With `CNC(=O)c1cccc2cc(Oc3ccnc4cc(OCC5(N)CC5)c(OC)cc34)ccc12` [Lucitanib], the drug sensitivity score in experiment [1] came to 3.1 ± 1.1; in experiment [2], 0.05 ± 0.071; in experiment [3], 2.95 ± 1.1.

`Cc1ncc(-c2ccnc(Nc3ccc(S(C)(=O)=O)cc3)n2)n1C(C)C` [AZD-5438]: the drug sensitivity score was determined as 5.5 ± 0.99 in experiment [1], 9.8 ± 0.14 in experiment [2] and 8.8 ± 0.99 in experiment [3].

Take `CN(C)C(=O)c1ccc(S(=O)(=O)c2ccc(NC(=O)[C@@](C)(O)C(F)(F)F)c(Cl)c2)cc1` [AZD7545]: the drug sensitivity score in experiment [1] turned out to be 0.65 ± 0.071; in experiment [2], 0; in experiment [3] it was 0.

On to `COc1cccc(-c2ccc(NC(=O)C3=C(C(=O)O)CCC3)c(F)c2)c1` [Vidofludimus], for which the drug sensitivity score in experiment [1] was 2.2 ± 2.8; in experiment [2] it was 0; in experiment [3], 2.4 ± 1.7.

For the compound `CCN(CC)Cc1ccc2cc(COC(=O)Nc3ccc(C(=O)NO)cc3)ccc2c1` [Givinostat], the drug sensitivity score is 13.4 ± 0.28 in experiment [1], 7.9 ± 0.99 in experiment [2] and 12.7 ± 0.57 in experiment [3].

Turning to `Cn1cc(C[C@@H](N)C(=O)O)c2ccccc21` [1-methyl-D-tryptophan], the drug sensitivity score in experiment [1], in experiment [2] and in experiment [3] was 0 in each case.

Consider `CN(C)C1CCN(C(=O)c2ccc(NC(=O)Nc3ccc(-c4nc(N5CCOCC5)nc(N5CCOCC5)n4)cc3)cc2)CC1` [Gedatolisib], for which the drug sensitivity score amounted to 13.6 ± 0.35 in experiment [1], 4.55 ± 0.071 in experiment [2] and 15.2 ± 0.92 in experiment [3].

Take `CNS(=O)(=O)Nc1nccc(Cc2c(C)c3ccc(Oc4ncccn4)cc3oc2=O)c1F`: the drug sensitivity score in experiment [1] is 2.4 ± 0.14; in experiment [2], 0; in experiment [3] it was 0.3 ± 0.42.

Turning to `CO[C@H]1C(=O)[C@]2(C)[C@@H](OC)C[C@H]3OC[C@@]3(OC(C)=O)[C@H]2[C@H](OC(=O)c2ccccc2)[C@]2(O)C[C@H](OC(=O)[C@H](O)[C@@H](NC(=O)OC(C)(C)C)c3ccccc3)C(C)=C1C2(C)C` [Cabazitaxel], the figures for the drug sensitivity score in experiment [1], in experiment [2] and in experiment [3] were 35.9 ± 1.4, 13.55 ± 0.071 and 26.2 ± 3.5, respectively.

Turning to `O=C(O)C(=O)O.[NH-][C@@H]1CCCC[C@H]1[NH-].[Pt+2]` [Oxaliplatin], the drug sensitivity score stood at 29 ± 0.14 in experiment [1], 25.85 ± 0.21 in experiment [2] and 28.6 ± 0.71 in experiment [3].

As to `CC(C)[C@H]1C(=O)N[C@@H](CCCNC(=N)N)C(=O)NCC(=O)N[C@@H](CC(=O)O)C(=O)N[C@H](Cc2ccccc2)C(=O)N1C` [Cilengitide], the drug sensitivity score in experiment [1], in experiment [2] and in experiment [3] was 0 each time.

For the compound `C=CC(=O)N1CC/C(=C\c2ccc(F)c([N+](=O)[O-])c2)C(=O)/C(=C/c2ccc(F)c([N+](=O)[O-])c2)C1` [VLX1570], the results for the drug sensitivity score in experiment [1], in experiment [2] and in experiment [3] were 23.1 ± 0.78, 15.8 ± 0.92 and 23.5 ± 4.7, respectively.

On to `Nc1nc2cc(-c3ccc4ncc(C(=O)N5CCOCC5)n4c3)ccc2o1` [Serabelisib], for which the drug sensitivity score came out at 1.5 ± 1.4 in experiment [1], 0 in experiment [2] and 2.5 ± 3.5 in experiment [3].

Regarding `FC(F)(F)c1ccc(CNc2ccc(Cc3c[nH]c4ncc(Cl)cc34)cn2)cn1` [Pexidartinib], the drug sensitivity score in experiment [1] was 0.05 ± 0.071; in experiment [2] it was 0.1 ± 0.14; in experiment [3], 0.1 ± 0.14.

As for `CC(=O)N(O)CCCCCNC(=O)CCC(=O)N(O)CCCCCNC(=O)CCC(=O)N(O)CCCCCN` [Deferoxamine], the drug sensitivity score in experiment [1] amounted to 6.9 ± 0.71; in experiment [2] it was 0.9 ± 0.99; in experiment [3] it was 6.6 ± 1.4.

In the case of `CC1(C)CCC(CN2CCN(c3ccc(C(=O)NS(=O)(=O)c4ccc(NCC5CCOCC5)c([N+](=O)[O-])c4)c(Oc4cnc5[nH]ccc5c4)c3)CC2)=C(c2ccc(Cl)cc2)C1` [Venetoclax], the drug sensitivity score in experiment [1] stood at 0; in experiment [2], 1.4 ± 1.4; in experiment [3], 1.05 ± 1.5.

Consider `Cc1nc(C(=O)NCC(=O)O)c(O)c2ccc(Oc3ccccc3)cc12` [Roxadustat], for which the drug sensitivity score in experiment [1] stood at 0.6 ± 0.85; in experiment [2] it was 0; in experiment [3], 0.95 ± 1.3.

Turning to `O=C(O)CCCCC(CCSCc1ccccc1)SCc1ccccc1` (configuration not stated) [CPI-613], the drug sensitivity score in experiment [1], in experiment [2] and in experiment [3] was 0 throughout.

Turning to `Cc1cc2c(F)c(Oc3ncnn4cc(OC[C@@H](C)O)c(C)c34)ccc2[nH]1` [Brivanib], the drug sensitivity score in experiment [1], in experiment [2] and in experiment [3] was 0 each time.

`CC(C)(C)C[C@@H]1N[C@@H](C(=O)N[C@H]2CC[C@H](O)CC2)[C@H](c2cccc(Cl)c2F)[C@]12C(=O)Nc1cc(Cl)ccc12`: the drug sensitivity score in experiment [1] was 6.65 ± 1.3; in experiment [2] it was 0.75 ± 0.35; in experiment [3], 6.95 ± 1.9.

For `CC#CC(=O)N1CCC[C@H]1c1nc(-c2ccc(C(=O)Nc3ccccn3)cc2)c2c(N)nccn12` [Acalabrutinib], the drug sensitivity score was determined as 0 in experiment [1], 0 in experiment [2] and 0.05 ± 0.071 in experiment [3].

Regarding `CC1(COc2ccc3c(c2)ncn3-c2ccc3cccc(N4CCC(N)CC4)c3n2)COC1` [Crenolanib], the drug sensitivity score in experiment [1] was found to be 12.8 ± 0.49; in experiment [2], 6.25 ± 0.49; in experiment [3], 10.9 ± 1.5.

Regarding `CN1CCc2c(c3ccccc3n2Cc2ccc(C(=O)NO)cc2)C1` [Tubastatin A], the drug sensitivity score in experiment [1] was determined as 4.05 ± 0.64; in experiment [2], 0; in experiment [3] it was 3.6.

Consider `CC(=O)c1cnc2ccc(-c3cc(Cl)c(O)c(Cl)c3)nc2c1N[C@H]1CC[C@H](CN(C)C)CC1` [OTS167], for which the drug sensitivity score in experiment [1] was determined as 22.1 ± 0.78; in experiment [2], 17 ± 0.42; in experiment [3] it was 20.4 ± 0.92.
